# Reference: patent US20260263551A1, “TREATING CONDITIONS WITH HYPOGLYCEMIA ASSOCIATED WITH HYPERINSULINEMIA” (RESILIUN B.V., priority 2022, published 2026)
# Where a SMILES comes first, the peptide text is derived from it.
# How the values were obtained:
# [1] = tested on: mTOR; settings: piglets; cited from earlier work
# [2] = tested on: human pulmonary microvascular endothelial cells (Hpmec); test: Microvascular angiogenesis (sprouting) assay in Matrigel; assay type: cell-based; settings: t=16, 24 and 40h (P=0.48, 0.011 and 0.032)
# From the text: Microvascular angiogenesis assay of human pulmonary microvascular endothelial cells grown in Matrigel as determinant of ERC-reactivity and in response to increasing concentrations of GXXP-peptides 3, 6 and 8, (VGVAPGVGVAPGVGVAPG, QVGQVELGGGPGAGSLQP and GAYPGAPGAYPGAPAPGV, taken from the exon 24 region of human elastin, from the mid-portion of human C-peptide, and from the N-terminal portion of human Galectin-3, FIGS. 4a, 4b and 4c, respectively). Data shown are total tube length measurements and total branch length measurements at t=24 h. * p<0.05; ** p<0.01; *** p<0.001. At 4 h no angiogenic activity of the various peptides was as yet observed.
# As measuring insulin resistance in vitro is a cumbersome feat, the effect of three elastin fragment peptides and related GXXP-peptides on endothelial cell sprouting were assessed instead. Endothelial cells (Hpmec, n=4) were serum starved for 24 hours, trypsinised and seeded in growth factor-reduced Matrigel. […] Sprouting by means of mean total tube length and mean total branch length per field of view were quantified with ImageJ software. […]
# Pictures were analyzed using the plug-in angiogenesis analyzer in ImageJ. […]
# [3] = tested on: Na+, K+-ATPase; settings: cited from earlier work
# [4] = in vivo; cited from earlier work
# [5] = tested on: Na+, K+-ATPase; settings: rat renal tubular segments; peptides tested at 5×10^-7 mol/l; cited from earlier work
# [6] = tested on: Na+, K+-ATPase; settings: purified preparation of Na+,K+-ATPase; cited from earlier work
# [7] = tested on: fibroblasts and monocytes; settings: cited from earlier work
# [8] = tested on: human skin fibroblast; settings: cited from earlier work
# [9] = infants >2 years of age; cited from earlier work
# [10] = single infusion, healthy adults; cited from earlier work
molecule,measurement,setting,value
"C[C@H](N)C(=O)N[C@@H](CCC(N)=O)C(=O)O [AQ, Alanyl-glutamine] (H-Ala-Gln-OH)",autophagy / mTOR modulation,[1],autophagy-inhibition
"CC(=O)N[C@H]1[C@H]([C@H](O)[C@H](O)CO)OC(C(=O)O)=C[C@@H]1O [DANA, 2,3-dehydro-2-deoxy-N-acetylneuraminic acid]",effect on the angiogenic effects of peptide 3,[2],significantly potentiated
CN(C)CCCn1cc(C2=C(c3c[nH]c4ccccc34)C(=O)NC2=O)c2ccccc21 [G F109203X],effect on C-peptide stimulation of 86Rb+ uptake,"[3]; 1 μM preincubation, PKC inhibitor",abolished
COc1cccc(-c2cc(=O)c3ccccc3o2)c1N [PD98059],"effect on C-peptide-stimulated Na+,K+-ATPase activation, α1-subunit phosphorylation and translocation to BLM","[3]; 20 μM, MEK1/2 inhibitor",abolished
C[C@@H](O)[C@@H]1NC(=O)[C@H](CCCCN)NC(=O)[C@@H](Cc2c[nH]c3ccccc23)NC(=O)[C@H](Cc2ccccc2)NC(=O)[C@@H](NC(=O)[C@H](N)Cc2ccccc2)CSSC[C@@H](C(=O)N[C@H](CO)[C@@H](C)O)NC1=O [octreotide],half-life,[4],around 100 min
EGSLQ,activity relative to the intact molecule,[3]; HRTCs,57%
same,activity relative to intact C-peptide,[5],75%
ELGGGPEAG [PG-domain peptide of rat C-peptide 1],direct activation of isolated ATPase,[6],No measurable activation
EVARQ,direct activation of isolated ATPase,[6],No measurable activation
same,activity relative to intact C-peptide,[5],100%
"VGVAPG [Chemotactic Domain of Elastin, Bachem product number 4010536]",chemotactic activity,[7],chemotactic for fibroblasts and monocytes
same,fibroblast proliferation,[8],stimulated human skin fibroblast proliferation
human C-peptide: cleavage product of the proinsulin molecule (RREAEDLQVGQVELGGGPGAGSLQPLALEGSLQKR),stimulation of 86Rb+ uptake,"[3]; 5 nM, 37° C., 10 min, HRTCs",40%
"XOMA 358: antibody XOMA 358 (aka RZ358), monoclonal antibody given by infusion (antibody, chains of the INN, looked up, V domains shown) VH: EVQLVETGGGVVQPGRSLRLSCAASGFTFSSYAMHWVRQAPGKGLEWYAVISYDGSNKYYADSVKGRFTISRDNSKNTLYLQMNSLRAEDTAVYYCARHEWGFGMDVWGQGTTVTVSS VL: DVVMTQSPLSLSVTLGQPASISCRSSLSLVYGDENTYLNWFQQRPGQSPRRLLYKVSDRDSGVPDRFSGSGSGTDFTLKISRVEADDVGVYYCMQGTHWPYTFGQGTKLEIK",hypoglycemia,[9],reduction of hypoglycemia
same,insulin sensitivity,[10],dose-dependent reduction in insulin sensitivity
